From ChEMBL document CHEMBL2069271, “Design, synthesis, stereochemistry and antioxidant properties of various 7-alkylated 2,4-diaryl-3-azabicyclo[3.3.1]nonan-9-ones” (Bioorg Med Chem Lett, 2012)

Legend:
[1] = tested on: Radical scavenging activity; assay: Antioxidant activity assessed as inhibition of DPPH radical generation; assay type: functional
[2] = tested on: Radical scavenging activity; assay: Antioxidant activity assessed as inhibition of DPPH radical generation relative to alpha-tocopherol; assay type: functional; design: scale not given: the % may be the effect or the level left
[3] = Oral bioavailability in rat at 500 mg/kg; assay type: ADME, organism-based; conditions: in vivo

Row | IC50 [1] [µM] | bioavailability [3] [%] | SMILES | Activity [2] [%]
1 | 59 | – | Cc1c(C)c2c(c(C)c1O)CC[C@@](C)(CCC[C@H](C)CCC[C@H](C)CCCC(C)C)O2 [ALPHA-TOCOPHEROL] | –
2 | – | – | COc1ccc(OC)c(C2NC(c3cc(OC)ccc3OC)C3CC(C)CC2C3=O)c1 (stereo unspecified) | 20
3 | 35.1 | 1 | COc1cc(/C=C/C(=O)CC(=O)/C=C/c2ccc(O)c(OC)c2)ccc1O [CURCUMIN] | –
4 | – | – | COc1ccc(C2NC(c3ccc(OC)c(OC)c3)C3CC(C)CC2C3=O)cc1OC (stereo unspecified) | 20
5 | – | – | COc1cc(C2NC(c3cc(OC)c(OC)c(OC)c3)C3CC(C)CC2C3=O)cc(OC)c1OC (stereo unspecified) | 20
